Laboratory results published in the NIST ThermoML archive (doi:10.1016/j.jct.2009.07.006).

Settings: Liquid, Vibrating tube method

Cc1ccccn1 [2-methylpyridine]
mass density [kg/m3]
Settings | 298.15 K | 308.15 K | 318.15 K | 328.15 K
2130 kPa | 941.2 | 932.1 | 922.8 | 913.5
4150 kPa | 942.5 | 933.5 | 924.3 | 915.1
6180 kPa | 943.9 | 935 | 925.8 | 916.7
8210 kPa | 945.3 | 936.4 | 927.3 | 918.3
10230 kPa | 946.6 | 937.8 | 928.8 | 919.8
11250 kPa | 947.2 | 938.5 | 929.5 | 920.5
12260 kPa | 947.9 | 939.1 | 930.2 | 921.3
14290 kPa | 949.2 | 940.5 | 931.6 | 922.8
16310 kPa | 950.5 | 941.9 | 933 | 924.3
18340 kPa | 951.7 | 943.2 | 934.4 | 925.7
20370 kPa | 953 | 944.5 | 935.8 | 927.2
22390 kPa | 954.2 | 945.8 | 937.1 | 928.6
24420 kPa | 955.4 | 947 | 938.5 | 930
26450 kPa | 956.6 | 948.3 | 939.8 | 931.4
28470 kPa | 957.7 | 949.5 | 941.1 | 932.7
29490 kPa | 958.3 | 950.1 | 941.7 | 933.4
30500 kPa | 958.9 | 950.8 | 942.4 | 934.1
32520 kPa | 960.1 | 952 | 943.7 | 935.4
34550 kPa | 961.2 | 953.2 | 944.9 | 936.8
36580 kPa | 962.4 | 954.3 | 946.1 | 938
38600 kPa | 963.5 | 955.5 | 947.3 | 939.3
39620 kPa | 964 | 956.1 | 947.9 | 940

Cc1ccncc1 [4-methylpyridine]
mass density [kg/m3]
Settings | 298.15 K | 308.15 K | 318.15 K | 328.15 K
2130 kPa | 951.2 | 942.3 | 933.3 | 924.3
4150 kPa | 952.5 | 943.7 | 934.7 | 925.8
6180 kPa | 953.8 | 945 | 936.1 | 927.3
8210 kPa | 955.1 | 946.4 | 937.4 | 928.7
10230 kPa | 956.3 | 947.7 | 938.9 | 930.2
11250 kPa | 956.9 | 948.3 | 939.5 | 930.9
12260 kPa | 957.5 | 949 | 940.2 | 931.6
14290 kPa | 958.8 | 950.3 | 941.6 | 933
16310 kPa | 960 | 951.5 | 942.9 | 934.4
18340 kPa | 961.2 | 952.8 | 944.2 | 935.7
20370 kPa | 962.3 | 954 | 945.5 | 937.1
22390 kPa | 963.5 | 955.2 | 946.7 | 938.4
24420 kPa | 964.6 | 956.4 | 948 | 939.7
26450 kPa | 965.8 | 957.6 | 949.2 | 941.1
28470 kPa | 966.9 | 958.8 | 950.5 | 942.3
29490 kPa | 967.4 | 959.3 | 951.1 | 943
30500 kPa | 968 | 959.9 | 951.7 | 943.6
32530 kPa | 969.1 | 961.1 | 952.9 | 944.8
34550 kPa | 970.2 | 962.2 | 954 | 946.1
36580 kPa | 971.3 | 963.3 | 955.2 | 947.3
38600 kPa | 972.3 | 964.4 | 956.4 | 948.5
39620 kPa | 972.8 | 965 | 957 | 949.1
